What was measured:
barnyardgrass [1] = assay: Test A pre-/postemergence greenhouse test; type: in vivo, Echinochloa crus-galli; conditions: for Plant response rating, Barnyardgrass: 0 to 100 scale where 0 is no effect and 100 is complete control; for Barnyardgrass plant response rating: 0 to 100 scale
How it was run: (§1)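 Untreated controls served as the reference for visual injury ratings taken about ten days after spraying. The non-phytotoxic solvent/surfactant formulation was applied preemergence to seeded loam and sand and postemergence to plants two to ten cm high.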

crabgrass = assay: Test A pre-/postemergence greenhouse test; type: in vivo, Digitaria sanguinalis; conditions: for Plant response rating, Crabgrass, Large: 0 to 100 scale where 0 is no effect and 100 is complete control; for Crabgrass, Large plant response rating: 0 to 100 scale
How it was run: as §1

giant foxtail = assay: Test A pre-/postemergence greenhouse test; type: in vivo, Setaria faberi; conditions: for Plant response rating, Foxtail, Giant: 0 to 100 scale where 0 is no effect and 100 is complete control; for Foxtail, Giant plant response rating: 0 to 100 scale
How it was run: as §1

morningglory = assay: Test A pre-/postemergence greenhouse test; type: in vivo, Ipomoea spp.; conditions: for Plant response rating, Morningglory: 0 to 100 scale where 0 is no effect and 100 is complete control; for Morningglory plant response rating: 0 to 100 scale
How it was run: as §1

redroot pigweed = assay: Test A pre-/postemergence greenhouse test; type: in vivo, Amaranthus retroflexus; conditions: for Plant response rating, Pigweed: 0 to 100 scale where 0 is no effect and 100 is complete control; for Pigweed plant response rating: 0 to 100 scale
How it was run: as §1

velvetleaf = assay: Test A pre-/postemergence greenhouse test; type: in vivo, Abutilon theophrasti; conditions: for Plant response rating, Velvetleaf: 0 to 100 scale where 0 is no effect and 100 is complete control; for Velvetleaf plant response rating: 0 to 100 scale
How it was run: as §1

wheat = assay: Test A pre-/postemergence greenhouse test; type: in vivo, Triticum aestivum; conditions: for Plant response rating, Wheat: 0 to 100 scale where 0 is no effect and 100 is complete control; for Wheat plant response rating: 0 to 100 scale
How it was run: as §1

corn = assay: Test A pre-/postemergence greenhouse test; type: in vivo, Zea mays; conditions: for Plant response rating, Corn: 0 to 100 scale where 0 is no effect and 100 is complete control; for Corn plant response rating: 0 to 100 scale
How it was run: as §1

rice = assay: Test C flooded paddy test; type: in vivo, Oryza sativa; conditions: Flood
How it was run: (§2)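 Compound was added to standing water 3 cm above soil, flood maintained, and plants held in a greenhouse before visual scoring against controls at 13 to 15 days.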

umbrella sedge = assay: Test C flooded paddy test; type: in vivo, Cyperus difformis; conditions: Flood
How it was run: as §2

duck salad = assay: Test C flooded paddy test; type: in vivo, Heteranthera limosa; conditions: Flood
How it was run: as §2

barnyardgrass [2] = assay: Test C flooded paddy test; type: in vivo, Echinochloa crus-galli; conditions: Flood
How it was run: as §2

[3] = Postemergence, 500 g ai/ha, 0 is no effect, 100 is complete control
[4] = Preemergence, 125 g ai/ha, 0 no effect, 100 complete control
[5] = 62 g ai/ha, scale 0 to 100 (0 no effect, 100 complete control)
[6] = 250 g ai/ha, scale 0 to 100, 0 no effect, 100 complete control, 13 to 15 days
[7] = Preemergence, 500 g ai/ha, 0 no effect, 100 complete control

In the case of `Cn1nc(C(F)(F)F)c(CS(=O)(=O)c2cccc[n+]2[O-])c1OCC(F)(F)C(F)(F)F` [Compound 83], the “Plant response rating, Barnyardgrass” value (barnyardgrass [1]; Postemergence, 125 g ai/ha) is reported as 50, the “Barnyardgrass plant response rating” value (barnyardgrass [1]; [3]) is reported as 70 and the “Barnyardgrass plant response rating” value (barnyardgrass [1]; [4]) is reported as 80. The “Plant response rating, Barnyardgrass” value (barnyardgrass [1]; Preemergence, 500 g ai/ha) was 100, the “Plant response rating, Crabgrass, Large” value (crabgrass; Postemergence, 125 g ai/ha) was 30 and the “Crabgrass, Large plant response rating” value (crabgrass; [3]) was 80. For the same compound, the “Crabgrass, Large plant response rating” value (crabgrass; [4]) was 50, the “Plant response rating, Crabgrass, Large” value (crabgrass; Preemergence, 500 g ai/ha) was 80 and the “Plant response rating, Foxtail, Giant” value (giant foxtail; Postemergence, 125 g ai/ha) was 70. The “Foxtail, Giant plant response rating” value (giant foxtail; [3]) was 80, the “Foxtail, Giant plant response rating” value (giant foxtail; [4]) was 80 and the “Plant response rating, Foxtail, Giant” value (giant foxtail; Preemergence, 500 g ai/ha) was 100. The “Plant response rating, Morningglory” value (morningglory; Postemergence, 125 g ai/ha) was 10, the “Morningglory plant response rating” value (morningglory; [3]) was 30 and the “Morningglory plant response rating” value (morningglory; [4]) was 0. The “Plant response rating, Morningglory” value (morningglory; Preemergence, 500 g ai/ha) was 70, the “Plant response rating, Pigweed” value (redroot pigweed; Postemergence, 125 g ai/ha) was 10 and the “Pigweed plant response rating” value (redroot pigweed; [3]) was 20. For the same compound, the “Pigweed plant response rating” value (redroot pigweed; [4]) was 10, the “Plant response rating, Pigweed” value (redroot pigweed; Preemergence, 500 g ai/ha) was 100 and the “Plant response rating, Velvetleaf” value (velvetleaf; Postemergence, 125 g ai/ha) was 0. For the same compound, the “Velvetleaf plant response rating” value (velvetleaf; [3]) was 40, the “Velvetleaf plant response rating” value (velvetleaf; [4]) was 0 and the “Plant response rating, Velvetleaf” value (velvetleaf; Preemergence, 500 g ai/ha) was 60. For the same compound, the “Plant response rating, Wheat” value (wheat; Postemergence, 125 g ai/ha) was 0, the “Wheat plant response rating” value (wheat; [3]) was 10 and the “Wheat plant response rating” value (wheat; [4]) was 10. The “Plant response rating, Wheat” value (wheat; Preemergence, 500 g ai/ha) was 60, the “Plant response rating, Corn” value (corn; Postemergence, 125 g ai/ha) was 0 and the “Corn plant response rating” value (corn; [3]) was 0. For the same compound, the “Corn plant response rating” value (corn; [4]) was 0, the “Plant response rating, Corn” value (corn; Preemergence, 500 g ai/ha) was 40 and the “Plant response rating, Rice” value (rice; [5]) was 20. The “Plant response rating, Rice” value (rice; [6]) was 20, the “Plant response rating, Sedge, Umbrella” value (umbrella sedge; [5]) was 0 and the “Plant response rating, Sedge, Umbrella” value (umbrella sedge; [6]) was 0. For the same compound, the “Plant response rating, Ducksalad” value (duck salad; [5]) was 0, the “Plant response rating, Ducksalad” value (duck salad; [6]) was 0 and the “Plant response rating, Barnyardgrass” value (barnyardgrass [2]; [5]) was 0. For the same compound, the “Plant response rating, Barnyardgrass” value (barnyardgrass [2]; [6]) was 0.

`Cc1cc[n+]([O-])c([S+]([O-])Cc2c(C(F)(F)F)nn(C)c2OCC(F)(F)C(F)(F)F)c1` (centres unmarked) [Compound 90] was tested, and the “Plant response rating, Barnyardgrass” value (barnyardgrass [1]; Postemergence, 125 g ai/ha) was 0, the “Barnyardgrass plant response rating” value (barnyardgrass [1]; [3]) was 60 and the “Barnyardgrass plant response rating” value (barnyardgrass [1]; [4]) was 0. The “Plant response rating, Barnyardgrass” value (barnyardgrass [1]; Preemergence, 500 g ai/ha) was 100, the “Plant response rating, Crabgrass, Large” value (crabgrass; Postemergence, 125 g ai/ha) was 20 and the “Crabgrass, Large plant response rating” value (crabgrass; [3]) was 80. The “Crabgrass, Large plant response rating” value (crabgrass; [4]) was 40, the “Plant response rating, Crabgrass, Large” value (crabgrass; Preemergence, 500 g ai/ha) was 90 and the “Plant response rating, Foxtail, Giant” value (giant foxtail; Postemergence, 125 g ai/ha) was 50. The “Foxtail, Giant plant response rating” value (giant foxtail; [3]) was 80, the “Foxtail, Giant plant response rating” value (giant foxtail; [4]) was 70 and the “Plant response rating, Foxtail, Giant” value (giant foxtail; Preemergence, 500 g ai/ha) was 100. For the same compound, the “Plant response rating, Morningglory” value (morningglory; Postemergence, 125 g ai/ha) was 20, the “Morningglory plant response rating” value (morningglory; [3]) was 90 and the “Morningglory plant response rating” value (morningglory; [4]) was 0. The “Plant response rating, Morningglory” value (morningglory; Preemergence, 500 g ai/ha) was 60, the “Plant response rating, Pigweed” value (redroot pigweed; Postemergence, 125 g ai/ha) was 10 and the “Pigweed plant response rating” value (redroot pigweed; [3]) was 30. For the same compound, the “Pigweed plant response rating” value (redroot pigweed; [4]) was 0, the “Plant response rating, Pigweed” value (redroot pigweed; Preemergence, 500 g ai/ha) was 40 and the “Plant response rating, Velvetleaf” value (velvetleaf; Postemergence, 125 g ai/ha) was 0. The “Velvetleaf plant response rating” value (velvetleaf; [3]) was 80, the “Velvetleaf plant response rating” value (velvetleaf; [4]) was 0 and the “Velvetleaf plant response rating” value (velvetleaf; [7]) was 70. The “Plant response rating, Wheat” value (wheat; Postemergence, 125 g ai/ha) was 0, the “Wheat plant response rating” value (wheat; [3]) was 70 and the “Wheat plant response rating” value (wheat; [4]) was 0. For the same compound, the “Wheat plant response rating” value (wheat; [7]) was 80, the “Plant response rating, Corn” value (corn; Postemergence, 125 g ai/ha) was 30 and the “Corn plant response rating” value (corn; [3]) was 50. The “Corn plant response rating” value (corn; [4]) was 0, the “Plant response rating, Corn” value (corn; Preemergence, 500 g ai/ha) was 50 and the “Plant response rating, Rice” value (rice; [5]) was 0. For the same compound, the “Plant response rating, Rice” value (rice; [6]) was 0, the “Plant response rating, Sedge, Umbrella” value (umbrella sedge; [5]) was 0 and the “Plant response rating, Sedge, Umbrella” value (umbrella sedge; [6]) was 70. For the same compound, the “Plant response rating, Ducksalad” value (duck salad; [5]) was 0, the “Plant response rating, Ducksalad” value (duck salad; [6]) was 20 and the “Plant response rating, Barnyardgrass” value (barnyardgrass [2]; [5]) was 0. The “Plant response rating, Barnyardgrass” value (barnyardgrass [2]; [6]) was 0.

Reference: patent US20100298141A1, “SUBSTITUTED PYRIDINE N-OXIDE HERBICIDES” (E. I. DU PONT DE NEMOURS AND COMPANY, priority 2007, published 2010)
